Measurements published in ChEMBL document CHEMBL1201862, “PubChem BioAssay data set” (2004).
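Growth conditions: 96-well plates. Treatment: test compound, 48 hours, 5 concentrations. Analysis: linear interpolation between bracketing concentrations; unreached endpoints set to highest concentration. GI50: concentration for 50% inhibition of growth.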 Activity calls are given as the source filed them. Cut-off read from the data, not from the text of the source: active = GI50 up to about 1.1 µM and inactive = higher.

Experiments:
Experiment in all cases: growth of human tumour cells (NCI), 48 h
PC-3 = system: PC-3
ACHN = system: ACHN
NCI/ADR-RES = system: NCI/ADR-RES
OVCAR-8 = system: OVCAR-8
RPMI-8226 = system: RPMI-8226
SNB-75 = system: SNB-75
MDA-MB-231 = system: MDA-MB-231
EKVX = system: EKVX
HL-60 = system: HL-60
NCI-H522 = system: NCI-H522
SF-539 = system: SF-539
K562 = system: K562
UACC-257 = system: UACC-257
SNB-19 = system: SNB-19
CAKI-1 = system: CAKI-1
SK-MEL-28 = system: SK-MEL-28
IGROV-1 = system: IGROV-1
COLO 205 = system: COLO 205
HCT-15 = system: HCT-15
OVCAR-4 = system: OVCAR-4
HCT-116 = system: HCT-116
OVCAR-5 = system: OVCAR-5
SK-MEL-5 = system: SK-MEL-5
A549 = system: A549
DU-145 = system: DU-145
MOLT-4 = system: MOLT-4
SW-620 = system: SW-620
SK-OV-3 = system: SK-OV-3
CCRF-CEM = system: CCRF-CEM
LOX IMVI = system: LOX IMVI
NCI-H23 = system: NCI-H23
HOP-92 = system: HOP-92
HCC 2998 = system: HCC 2998
KM12 = system: KM12
M14 = system: M14
Hs-578T = system: Hs-578T
SK-MEL-2 = system: SK-MEL-2
SF-295 = system: SF-295
BT-549 = system: BT-549
NCI-H460 = system: NCI-H460
OVCAR-3 = system: OVCAR-3
Malme-3M = system: Malme-3M
U-251 = system: U-251
786-0 = system: 786-0
HT-29 = system: HT-29
MDA-MB-435 = system: MDA-MB-435
TK-10 = system: TK-10
UO-31 = system: UO-31
MDA-N = system: MDA-N
NCI-H226 = system: NCI-H226
RXF 393 = system: RXF 393
UACC-62 = system: UACC-62
SR = system: SR
A498 = system: A498
T47D = system: T47D
MCF7 = system: MCF7
SF-268 = system: SF-268
HOP-62 = system: HOP-62
SN12C = system: SN12C
SNB-78 = system: SNB-78
HOP-18 = system: HOP-18
DLD-1 = system: DLD-1
KM-20L2 = system: KM-20L2
DMS-114 = system: DMS-114
LXFL 529 = system: LXFL 529
DMS-273 = system: DMS-273
M19-MEL = system: M19-MEL

Measured: GI50

CC(=O)Nc1cc2c3c(c1)CCCN3CCC2
inactive: PC-3 > 100 µM | ACHN > 100 µM | NCI/ADR-RES > 100 µM | OVCAR-8 > 100 µM | RPMI-8226 > 100 µM | SNB-75 65.5 µM | MDA-MB-231 > 100 µM | EKVX 64.9 µM | HL-60 > 100 µM | NCI-H522 > 100 µM | SF-539 > 100 µM | K562 > 100 µM | UACC-257 > 100 µM | SNB-19 > 100 µM | CAKI-1 > 100 µM | SK-MEL-28 > 100 µM | IGROV-1 > 100 µM | COLO 205 > 100 µM | OVCAR-4 > 100 µM | HCT-116 > 100 µM | OVCAR-5 > 100 µM | SK-MEL-5 > 100 µM | A549 > 100 µM | DU-145 > 100 µM | MOLT-4 > 100 µM | SW-620 > 100 µM | SK-OV-3 > 100 µM | CCRF-CEM > 100 µM | LOX IMVI > 100 µM | NCI-H23 > 100 µM | HOP-92 > 100 µM | HCC 2998 > 100 µM | KM12 > 100 µM | M14 > 100 µM | Hs-578T > 100 µM | SK-MEL-2 > 100 µM | SF-295 > 100 µM | BT-549 > 100 µM | NCI-H460 > 100 µM | OVCAR-3 > 100 µM | Malme-3M > 100 µM | U-251 > 100 µM | 786-0 > 100 µM | HT-29 > 100 µM | MDA-MB-435 > 100 µM | TK-10 > 100 µM | UO-31 > 100 µM | MDA-N > 100 µM | NCI-H226 > 100 µM | RXF 393 > 100 µM | UACC-62 > 100 µM | SR > 100 µM | A498 > 100 µM | T47D 44.6 µM | MCF7 > 100 µM
> 100 µM: HCT-15

CC(=O)NNc1nc(C)c(C(/C=C/c2ccc([N+](=O)[O-])cc2)=N/NC(N)=S)s1
> 100 µM: HCT-15
inactive: PC-3 > 100 µM | ACHN > 100 µM | NCI/ADR-RES > 100 µM | OVCAR-8 > 100 µM | RPMI-8226 > 100 µM | SF-268 > 100 µM | SNB-75 > 100 µM | MDA-MB-231 > 100 µM | EKVX > 100 µM | HL-60 > 100 µM | NCI-H522 > 100 µM | SF-539 > 100 µM | UACC-257 > 100 µM | SNB-19 > 100 µM | CAKI-1 > 100 µM | SK-MEL-28 > 100 µM | IGROV-1 > 100 µM | COLO 205 > 100 µM | OVCAR-4 > 100 µM | HCT-116 > 100 µM | OVCAR-5 > 100 µM | SK-MEL-5 > 100 µM | A549 > 100 µM | DU-145 > 100 µM | MOLT-4 > 100 µM | SW-620 > 100 µM | HOP-62 > 100 µM | SK-OV-3 > 100 µM | CCRF-CEM > 100 µM | LOX IMVI > 100 µM | NCI-H23 > 100 µM | HOP-92 > 100 µM | HCC 2998 > 100 µM | KM12 > 100 µM | M14 > 100 µM | Hs-578T > 100 µM | SK-MEL-2 > 100 µM | SF-295 > 100 µM | BT-549 > 100 µM | NCI-H460 > 100 µM | OVCAR-3 > 100 µM | Malme-3M > 100 µM | U-251 > 100 µM | 786-0 > 100 µM | HT-29 > 100 µM | MDA-MB-435 > 100 µM | TK-10 > 100 µM | UO-31 > 100 µM | MDA-N > 100 µM | NCI-H226 > 100 µM | RXF 393 > 100 µM | UACC-62 > 100 µM | SR > 100 µM | A498 > 100 µM | T47D > 100 µM | SN12C > 100 µM | MCF7 > 100 µM

COP(=O)(CC(=O)C1OC(C)(C)OC1C(O)COCc1ccccc1)OC (stereo unspecified)
> 100 µM: HCT-15
inactive: ACHN > 100 µM | SNB-78 > 100 µM | OVCAR-8 > 100 µM | RPMI-8226 > 100 µM | HOP-18 > 100 µM | SF-268 > 100 µM | SNB-75 > 100 µM | DLD-1 > 100 µM | EKVX > 100 µM | HL-60 > 100 µM | SF-539 > 100 µM | K562 > 100 µM | UACC-257 > 100 µM | CAKI-1 > 100 µM | SK-MEL-28 > 100 µM | IGROV-1 > 100 µM | KM-20L2 > 100 µM | COLO 205 > 100 µM | OVCAR-4 > 100 µM | HCT-116 > 100 µM | OVCAR-5 > 100 µM | SK-MEL-5 46.2 µM | A549 > 100 µM | MOLT-4 > 100 µM | SW-620 > 100 µM | HOP-62 > 100 µM | CCRF-CEM > 100 µM | LOX IMVI > 100 µM | NCI-H23 > 100 µM | HOP-92 > 100 µM | HCC 2998 > 100 µM | KM12 > 100 µM | M14 > 100 µM | SK-MEL-2 > 100 µM | SF-295 > 100 µM | NCI-H460 > 100 µM | DMS-114 > 100 µM | OVCAR-3 > 100 µM | Malme-3M > 100 µM | U-251 > 100 µM | 786-0 > 100 µM | HT-29 > 100 µM | TK-10 > 100 µM | UO-31 > 100 µM | NCI-H226 > 100 µM | LXFL 529 > 100 µM | DMS-273 > 100 µM | RXF 393 > 100 µM | UACC-62 > 100 µM | SR > 100 µM | A498 > 100 µM | SN12C > 100 µM | M19-MEL > 100 µM

COC1(OC)C2(Cl)C(Cl)=C(Cl)C1(Cl)C1COCC12 (stereo unspecified)
inactive: PC-3 > 100 µM | ACHN > 100 µM | NCI/ADR-RES > 100 µM | OVCAR-8 > 100 µM | RPMI-8226 > 72.4 µM | SF-268 > 100 µM | SNB-75 > 100 µM | MDA-MB-231 > 100 µM | HL-60 > 61.4 µM | NCI-H522 > 100 µM | SF-539 > 100 µM | K562 > 88.5 µM | UACC-257 > 100 µM | SNB-19 > 100 µM | CAKI-1 > 100 µM | SK-MEL-28 > 38.7 µM | IGROV-1 > 100 µM | COLO 205 > 100 µM | OVCAR-4 > 100 µM | OVCAR-5 > 100 µM | SK-MEL-5 > 100 µM | A549 > 100 µM | DU-145 13.4 µM | MOLT-4 > 100 µM | SW-620 > 100 µM | HOP-62 > 100 µM | SK-OV-3 > 100 µM | CCRF-CEM > 100 µM | LOX IMVI > 100 µM | NCI-H23 > 45 µM | HOP-92 > 81.3 µM | HCC 2998 > 100 µM | KM12 > 100 µM | M14 > 100 µM | Hs-578T > 100 µM | SK-MEL-2 > 100 µM | SF-295 > 100 µM | BT-549 > 100 µM | NCI-H460 > 100 µM | OVCAR-3 > 100 µM | Malme-3M > 100 µM | U-251 > 44.5 µM | 786-0 > 100 µM | HT-29 > 100 µM | MDA-MB-435 30.8 µM | TK-10 > 40.7 µM | UO-31 > 100 µM | MDA-N > 20.4 µM | NCI-H226 > 100 µM | RXF 393 > 100 µM | UACC-62 > 100 µM | SR > 75.3 µM | A498 > 100 µM | T47D > 100 µM | SN12C > 100 µM | MCF7 > 100 µM
> 100 µM: HCT-15

COc1ccc(CNC2=C(NC(C)=O)C(=O)c3ccccc3C2=O)cc1
13.1 µM: HCT-15
inactive: ACHN 2.07 µM | SNB-78 11.9 µM | OVCAR-8 16.8 µM | SF-268 18.9 µM | SNB-75 12.8 µM | DLD-1 8.53 µM | EKVX 14.7 µM | HL-60 1.69 µM | NCI-H522 1.37 µM | SF-539 7.43 µM | K562 7.76 µM | UACC-257 8.77 µM | SNB-19 25.5 µM | SK-MEL-28 18.3 µM | IGROV-1 16.8 µM | KM-20L2 28.8 µM | COLO 205 9.44 µM | OVCAR-4 8.13 µM | HCT-116 5.09 µM | SK-MEL-5 7.48 µM | A549 17.3 µM | MOLT-4 3.71 µM | SW-620 8.13 µM | HOP-62 > 50 µM | SK-OV-3 19.5 µM | CCRF-CEM 8.73 µM | LOX IMVI 8.51 µM | NCI-H23 6.68 µM | HOP-92 6.56 µM | HCC 2998 48.4 µM | KM12 23 µM | M14 19.4 µM | SK-MEL-2 9.18 µM | SF-295 17.8 µM | NCI-H460 15.2 µM | OVCAR-3 8.07 µM | Malme-3M 8.32 µM | U-251 12.4 µM | 786-0 24.4 µM | HT-29 29.4 µM | TK-10 10.6 µM | UO-31 9.53 µM | NCI-H226 12.6 µM | LXFL 529 8.07 µM | DMS-273 16.4 µM | RXF 393 6.41 µM | UACC-62 7.73 µM | SR 14 µM | SN12C 16.8 µM | M19-MEL 9.48 µM
